According to patent US20040258695A1, “Transferrin binding peptides and uses thereof” (priority 2003, published 2004):

Experiments:
[1] = test system: TbpB N-lobe from H. somnus; assay: bTf C-lobe overlapping peptide library probed with HRP-labelled H. somnus TbpB N-lobe; assay type: binding
Excerpt: (§1) Transferrin binding determinants from two bovine pathogens, M. haemolytica and H. somnus, as well as potential conserved transferrin binding determinants derived therefrom, were identified as described in Example 1 and shown in Table 4 below. Briefly, purified TbpB N-lobes from M. haemolytica and H. somnus were labelled with HRP and used to probe the bTf C-lobe overlapping peptide library. The peptides from the library that bound to the indicated TbpB N-lobe are listed in the column below the species name. The common overlap sequence from adjacent peptides probed with M. haemolytica (*), H. somnus (**) or both ( ) TbpB N-lobes are indicated for the indicated regions.

[2] = test system: TbpB N-lobe from M. haemolytica; assay: bTf C-lobe overlapping peptide library probed with HRP-labelled M. haemolytica TbpB N-lobe; assay type: binding
Excerpt: as §1

[3] = target: T1, human transferrin (hTf), iron loaded (human, UniProt P02787 20-698); assay: TbpB overlapping peptide library probed with labelled hTf as in Example 1
T1 construct: Used as a labelled probe (beta-gal conjugate for library 1, HRP conjugate for library 2 and the solid-phase assay); also called β-gal-hTf; HRP conjugated hTf
T1 sequence (P02787 20-698 limits assumed): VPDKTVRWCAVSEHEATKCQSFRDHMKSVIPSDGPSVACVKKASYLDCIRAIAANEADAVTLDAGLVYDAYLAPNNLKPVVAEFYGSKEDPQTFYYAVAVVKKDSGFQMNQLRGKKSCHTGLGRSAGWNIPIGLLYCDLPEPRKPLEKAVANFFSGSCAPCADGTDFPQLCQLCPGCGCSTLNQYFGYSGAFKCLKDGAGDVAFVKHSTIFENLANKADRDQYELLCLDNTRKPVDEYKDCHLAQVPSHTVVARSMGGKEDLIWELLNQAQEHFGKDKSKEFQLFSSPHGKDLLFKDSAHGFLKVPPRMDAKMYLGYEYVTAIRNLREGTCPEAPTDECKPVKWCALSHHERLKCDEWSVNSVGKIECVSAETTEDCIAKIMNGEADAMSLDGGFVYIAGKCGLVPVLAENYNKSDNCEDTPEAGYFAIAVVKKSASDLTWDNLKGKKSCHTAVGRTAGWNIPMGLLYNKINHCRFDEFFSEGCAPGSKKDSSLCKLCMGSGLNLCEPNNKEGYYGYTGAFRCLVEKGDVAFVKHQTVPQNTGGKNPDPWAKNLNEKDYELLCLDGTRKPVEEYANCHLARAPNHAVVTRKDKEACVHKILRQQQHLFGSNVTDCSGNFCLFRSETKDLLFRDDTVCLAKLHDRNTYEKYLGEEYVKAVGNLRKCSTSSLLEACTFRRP

[4] = target: T1, human transferrin (hTf), iron loaded; assay: SPOT peptide library 2 of TbpB N-lobe probed with HRP-hTf, chemiluminescence
HRP alone = target: T2, HRP alone (UniProt P00433 31-338); assay: SPOT peptide library 2 probed with HRP alone, chemiluminescence
T2 construct: Negative control probe for library 2; also called horseradish peroxidase
T2 sequence: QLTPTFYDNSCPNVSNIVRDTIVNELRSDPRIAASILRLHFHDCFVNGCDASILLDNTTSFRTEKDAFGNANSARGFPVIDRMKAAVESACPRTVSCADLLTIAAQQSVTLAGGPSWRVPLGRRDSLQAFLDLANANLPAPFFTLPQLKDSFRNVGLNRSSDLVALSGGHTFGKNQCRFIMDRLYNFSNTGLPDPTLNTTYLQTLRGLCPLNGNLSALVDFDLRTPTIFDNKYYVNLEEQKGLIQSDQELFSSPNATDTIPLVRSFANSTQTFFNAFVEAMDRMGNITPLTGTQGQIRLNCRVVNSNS

Molecule: ANINWNNLKDKKSCH (TbpB N-lobes of Bovine Pathgens) [Peptide 5, bTf C-lobe library peptide]
- binding to H. somnus TbpB N-lobe (bound peptide listed; None = did not bind) [1]: ANINWNNLKDKKSCH
- binding to M. haemolytica TbpB N-lobe (bound peptide listed; None = did not bind) [2]: ANINWNNLKDKKSCH

Molecule: AWAKNLKKENFEVLC (TbpB N-lobes of Bovine Pathgens) [Peptide 10, bTf C-lobe library peptide]
- binding to H. somnus TbpB N-lobe (bound peptide listed; None = did not bind) [1]: None
- binding to M. haemolytica TbpB N-lobe (bound peptide listed; None = did not bind) [2]: AWAKNLKKENFEVLC

Molecule: CAIGHQERTKCDRWS (TbpB N-lobes of Bovine Pathgens) [Peptide 2, bTf C-lobe library peptide]
- binding to H. somnus TbpB N-lobe (bound peptide listed; None = did not bind) [1]: CAIGHQERTKCDRWS
- binding to M. haemolytica TbpB N-lobe (bound peptide listed; None = did not bind) [2]: CAIGHQERTKCDRWS

Molecule: CHLARGPNHAVVSRK (TbpB N-lobes of Bovine Pathgens) [Peptide 12, bTf C-lobe library peptide]
- binding to H. somnus TbpB N-lobe (bound peptide listed; None = did not bind) [1]: CHLARGPNHAVVSRK
- binding to M. haemolytica TbpB N-lobe (bound peptide listed; None = did not bind) [2]: CHLARGPNHAVVSRK

Molecule: HAVVSRKDKATCVEK (TbpB N-lobes of Bovine Pathgens) [Peptide 14, bTf C-lobe library peptide]
- binding to H. somnus TbpB N-lobe (bound peptide listed; None = did not bind) [1]: HAVVSRKDKATCVEK
- binding to M. haemolytica TbpB N-lobe (bound peptide listed; None = did not bind) [2]: HAVVSRKDKATCVEK

Molecule: HQERTKCDRWSGFSG (TbpB N-lobes of Bovine Pathgens) [Peptide 3, bTf C-lobe library peptide]
- binding to H. somnus TbpB N-lobe (bound peptide listed; None = did not bind) [1]: HQERTKCDRWSGFSG
- binding to M. haemolytica TbpB N-lobe (bound peptide listed; None = did not bind) [2]: HQERTKCDRWSGFSG

Molecule: KCLASIAKKTYDSYL (TbpB N-lobes of Bovine Pathgens) [Peptide 17, bTf C-lobe library peptide]
- binding to H. somnus TbpB N-lobe (bound peptide listed; None = did not bind) [1]: KCLASIAKKTYDSYL
- binding to M. haemolytica TbpB N-lobe (bound peptide listed; None = did not bind) [2]: KCLASIAKKTYDSYL

Molecule: KTSDANINWNNLKDK (TbpB N-lobes of Bovine Pathgens) [Peptide 4, bTf C-lobe library peptide]
- binding to M. haemolytica TbpB N-lobe (bound peptide listed; None = did not bind) [2]: KTSDANINWNNLKDK

Molecule: MVKWCAIGHQERTKC (TbpB N-lobes of Bovine Pathgens) [Peptide 1, bTf C-lobe library peptide]
- binding to H. somnus TbpB N-lobe (bound peptide listed; None = did not bind) [1]: MVKWCAIGHQERTKC
- binding to M. haemolytica TbpB N-lobe (bound peptide listed; None = did not bind) [2]: MVKWCAIGHQERTKC

Molecule: NLKKENFEVLCKDGT (TbpB N-lobes of Bovine Pathgens) [Peptide 11, bTf C-lobe library peptide]
- binding to H. somnus TbpB N-lobe (bound peptide listed; None = did not bind) [1]: None
- binding to M. haemolytica TbpB N-lobe (bound peptide listed; None = did not bind) [2]: NLKKENFEVLCKDGT

Molecule: NNNEAWAKNLKKENF (TbpB N-lobes of Bovine Pathgens) [Peptide 9, bTf C-lobe library peptide]
- binding to H. somnus TbpB N-lobe (bound peptide listed; None = did not bind) [1]: NNNEAWAKNLKKENF
- binding to M. haemolytica TbpB N-lobe (bound peptide listed; None = did not bind) [2]: NNNEAWAKNLKKENF

Molecule: NSNERYYGYTGAFRC (TbpB N-lobes of Bovine Pathgens) [Peptide 6, bTf C-lobe library peptide]
- binding to H. somnus TbpB N-lobe (bound peptide listed; None = did not bind) [1]: NSNERYYGYTGAFRC
- binding to M. haemolytica TbpB N-lobe (bound peptide listed; None = did not bind) [2]: None

Molecule: NTDGNNNEAWALK (NTDGNNNEAWAKNLK; TbpB N-lobes of Bovine Pathgens) [Peptide 8, bTf C-lobe library peptide]
- binding to H. somnus TbpB N-lobe (bound peptide listed; None = did not bind) [1]: NTDGNNNEAWALK
- binding to M. haemolytica TbpB N-lobe (bound peptide listed; None = did not bind) [2]: None

Molecule: RAMTNLRQCSTSKLL (TbpB N-lobes of Bovine Pathgens) [Peptide 18, bTf C-lobe library peptide]
- binding to H. somnus TbpB N-lobe (bound peptide listed; None = did not bind) [1]: RAMTNLRQCSTSKLL
- binding to M. haemolytica TbpB N-lobe (bound peptide listed; None = did not bind) [2]: RAMTNLRQCSTSKLL

Molecule: RDDTKCLASIAKKTY (TbpB N-lobes of Bovine Pathgens) [Peptide 16, bTf C-lobe library peptide]
- binding to H. somnus TbpB N-lobe (bound peptide listed; None = did not bind) [1]: RDDTKCLASIAKKTY
- binding to M. haemolytica TbpB N-lobe (bound peptide listed; None = did not bind) [2]: RDDTKCLASIAKKTY

Molecule: RGPNHAVVSRKDKAT (TbpB N-lobes of Bovine Pathgens) [Peptide 13, bTf C-lobe library peptide]
- binding to H. somnus TbpB N-lobe (bound peptide listed; None = did not bind) [1]: RGPNHAVVSRKDKAT
- binding to M. haemolytica TbpB N-lobe (bound peptide listed; None = did not bind) [2]: RGPNHAVVSRKDKAT

Molecule: RYYGYTGAFRCLVEK (TbpB N-lobes of Bovine Pathgens) [Peptide 7, bTf C-lobe library peptide]
- binding to H. somnus TbpB N-lobe (bound peptide listed; None = did not bind) [1]: RYYGYTGAFRCLVEK
- binding to M. haemolytica TbpB N-lobe (bound peptide listed; None = did not bind) [2]: None

Molecule: SRKDKATCVEKILNK (TbpB N-lobes of Bovine Pathgens) [Peptide 15, bTf C-lobe library peptide]
- binding to H. somnus TbpB N-lobe (bound peptide listed; None = did not bind) [1]: SRKDKATCVEKILNK
- binding to M. haemolytica TbpB N-lobe (bound peptide listed; None = did not bind) [2]: None

Molecule: GKFLAHDKKVLGVFS (library peptide) [H. influenzae TbpB peptide GKFLAHDKKVLGVFS]
- binding result [3]: binds

B1: M. catarrhalis TbpB N-lobe peptide dfmtdvanrrnrfse (peptide)
peptide: DFMTDVANRRNRFSE
notes: SPOT peptide immobilised on cellulose membrane
- binding result [4]: binds
- binding result (HRP alone): no binding

B2: M. catarrhalis TbpB N-lobe peptide nfkekkltgklfsnl (peptide)
peptide: NFKEKKLTGKLFSNL
notes: as for B1
- binding result [4]: binds
- binding result (HRP alone): no binding

B3: M. catarrhalis TbpB N-lobe peptide kterydidanihgnr (peptide)
peptide: KTERYDIDANIHGNR
notes: as for B1
- binding result [4]: binds
- binding result (HRP alone): no binding

Molecule: SALPVGGVATYKGTW (library peptide) [H. influenzae TbpB peptide SALPVGGVATYKGTW]
- binding result [3]: binds

B4: M. catarrhalis TbpB N-lobe peptide fsevkensqagwyyg (peptide)
peptide: FSEVKENSQAGWYYG
notes: as for B1
- binding result [4]: binds
- binding result (HRP alone): no binding

B5: M. catarrhalis TbpB N-lobe peptide gklfsnlqdrhkgnv (peptide)
peptide: GKLFSNLQDRHKGNV
notes: as for B1
- binding result [4]: binds
- binding result (HRP alone): no binding

Molecule: AALNLFDRNKPSLLN (library peptide) [H. influenzae TbpB peptide AALNLFDRNKPSLLN]
- binding result [3]: binds

B6: M. catarrhalis TbpB N-lobe peptide kghwdfmtdvanrrn (peptide)
peptide: KGHWDFMTDVANRRN
notes: as for B1
- binding result [4]: binds
- binding result (HRP alone): no binding

B7: M. catarrhalis TbpB N-lobe peptide ydidanihgnrfrgs (peptide)
peptide: YDIDANIHGNRFRGS
notes: as for B1
- binding result [4]: binds
- binding result (HRP alone): no binding

Molecule: APNSNENRHGQKYVY (library peptide) [H. influenzae TbpB peptide APNSNENRHGQKYVY]
- binding result [3]: binds

Molecule: RNSGGGQAYSRRSAT (library peptide) [H. influenzae TbpB peptide RNSGGGQAYSRRSAT]
- binding result [3]: binds

Molecule: YKGTWSFITAAENGK (library peptide) [H. influenzae TbpB peptide YKGTWSFITAAENGK]
- binding result [3]: binds

Molecule: IQSWSLRDLPNKKFY (library peptide) [H. influenzae TbpB peptide IQSWSLRDLPNKKFY]
- binding result [3]: binds

B8: M. catarrhalis TbpB N-lobe peptide amgygmalskinlhn (peptide)
peptide: AMGYGMALSKINLHN
notes: as for B1
- binding result [4]: binds
- binding result (HRP alone): no binding

B9: M. catarrhalis TbpB N-lobe peptide avkykghwdfmtdva (peptide)
peptide: AVKYKGHWDFMTDVA
notes: as for B1
- binding result [4]: binds
- binding result (HRP alone): no binding

B10: M. catarrhalis TbpB N-lobe peptide wnlgpvggvfyngtt (peptide)
peptide: WNLGPVGGVFYNGTT
notes: as for B1
- binding result [4]: binds
- binding result (HRP alone): no binding

B11: M. catarrhalis TbpB N-lobe peptide kkltgklfsnlqdrh (peptide)
peptide: KKLTGKLFSNLQDRH
notes: as for B1
- binding result [4]: binds
- binding result (HRP alone): no binding

Molecule: TDANKSQNRTHKLYD (library peptide) [H. influenzae TbpB peptide TDANKSQNRTHKLYD]
- binding result [3]: binds
